{"source": "patent US20230390265A1", "about": "“IRAK4 Inhibitors and Topical Uses Thereof” (Dermira, Inc., priority 2020, published 2023)", "system": "TNFα protein expression", "assay": "Skin resident immune cell assay (sRICA), LPS-stimulated human skin, TNFα protein", "type": "cell-based", "settings": "positive control, applied topically", "description": "The anti-inflammatory activity of the IRAK4/TrkA inhibitors was determined in a skin resident immune cell assay (sRICA). In this model, human surgical skin waste was cultured in a transwell system, with the dermis in contact with cell culture media and the stratum corneum exposed to air. To perform the assay, each human skin sample was defatted and dermatomed to 750 μm. Next, 8 mm punch biopsies were obtained and placed in a membrane transwell. The biopsies were prepared with a barrier ring to contain the formulation and prevent leakage of the formulation. The transwells were inserted into culture wells with complete media, and a cocktail of cytokines and antibodies and/or inflammatory stimuli were added to promote skin resident immune cell polarization and/or elicitation of a specific inflammatory response. The transwells were treated with LPS as a positive control, a vehicle as a negative control, and various dual IRAK/TrkA inhibitors. TNFα protein expression was measured and the mean TNFα protein level in the LPS treated samples was set to 100%.\nThe Compounds were formulated at 80% saturated solubility. […]\nExcept for the 0.5% Compound 1/NAG6 formulations, all Round 2 formulations were manufactured at 80% saturation. […] Conditioned cell media was collected and assessed for expression of inflammatory proteins after 48 hours of exposure to LPS stimulation.", "note": "Entries after “also recorded” stand apart in the source; their conditions may differ."}
{"smiles": "CCC(=O)O[C@]1(C(=O)CCl)[C@@H](C)C[C@H]2[C@@H]3CCC4=CC(=O)C=C[C@]4(C)[C@@]3(F)[C@@H](O)C[C@@]21C", "note": "[Clobetasol]", "values": [{"measurement": "Effect on LPS-induced TNFα production / inflammation", "value": "significantly reduced inflammation back to baseline levels; also recorded: completely inhibited TNFα induction"}]}
